Literature values in patent US7211580B2, “Compounds, compositions, and methods” (Cytokinetics, Incorporated, priority 2002, dated 2007).

Test system: A549 cells
Conditions: concentration that decreases rate of cell growth by fifty percent

| GI50 | SMILES |
| --- | --- |
| 63 nM | COc1cccc2c1C(=O)c1c(O)c3c(c(O)c1C2=O)C[C@@](O)(C(=O)CO)C[C@@H]3O[C@H]1C[C@H](N)[C@H](O)[C@H](C)O1 [doxorubicin] |
| 500000 nM | NC(=O)NO [hydroxyurea] |
| 1000 nM | O=c1[nH]cc(F)c(=O)[nH]1 [5-fluorouracil] |
| 4 nM | CC(=O)O[C@H]1C(=O)[C@@]2(C)[C@H]([C@H](OC(=O)c3ccccc3)[C@]3(O)C[C@H](OC(=O)[C@H](O)[C@@H](NC(=O)c4ccccc4)c4ccccc4)C(C)=C1C3(C)C)[C@]1(OC(C)=O)CO[C@@H]1C[C@@H]2O [paclitaxel] |
